Results reported in ChEMBL document CHEMBL4251678, “Coculture of Two Developmental Stages of a Marine-Derived Aspergillus alliaceus Results in the Production of the Cytotoxic Bianthrone Allianthrone A” (J Nat Prod, 2018).
The source made the active and inactive calls. The calls are words filed in the database; no cut-off is given here.

How the values were obtained:
HCT-116 [1] = experiment: Cytotoxicity against human HCT116 cells assessed as reduction in cell viability after 48 hrs by MTT assay; format: functional, cell-based; settings: HCT-116, 48 h
MCF7 [2] = experiment: Cytotoxicity against human MCF7 cells assessed as reduction in cell viability after 48 hrs by MTT assay; format: functional, cell-based; settings: MCF7, 48 h
SK-MEL-5 [3] = experiment: Cytotoxicity against human SK-MEL-5 cells assessed as reduction in cell viability after 48 hrs by MTT assay; format: functional, cell-based; settings: SK-MEL-5, 48 h
PC-3 [4] = experiment: Cytotoxicity against human PC3 cells assessed as reduction in cell viability after 48 hrs by MTT assay; format: functional, cell-based; settings: PC-3, 48 h
Pseudomonas aeruginosa = experiment: Antimicrobial activity against Pseudomonas aeruginosa ATCC 15442 at 20.5 to 43.5 ug/ml by microbroth method; format: functional, organism-based
A549 [5] = experiment: Cytotoxicity against human A549 cells assessed as reduction in cell viability after 48 hrs by MTT assay; format: functional, cell-based; settings: A549, 48 h
Escherichia coli = experiment: Antimicrobial activity against Escherichia coli ATCC 8739 at 20.5 to 43.5 ug/ml by microbroth method; format: functional, organism-based
Candida albicans = experiment: Antifungal activity against Candida albicans ATCC 90027 at 20.5 to 43.5 ug/ml by microbroth method; format: functional, organism-based
Staphylococcus aureus = experiment: Antimicrobial activity against Staphylococcus aureus ATCC 25923 at 20.5 to 43.5 ug/ml by microbroth method; format: functional, organism-based
Enterococcus faecium = experiment: Antimicrobial activity against Enterococcus faecium ATCC 49032 at 20.5 to 43.5 ug/ml by microbroth method; format: functional, organism-based
Bacillus subtilis = experiment: Antimicrobial activity against Bacillus subtilis ATCC 49343 at 20.5 to 43.5 ug/ml by microbroth method; format: functional, organism-based
HCT-116 [6] = experiment: Cytotoxicity against human HCT116 cells assessed as cell survival at 250 uM after 48 hrs by MTT assay; format: functional; settings: HCT-116, 48 h, read-out: Survival
PC-3 [7] = experiment: Cytotoxicity against human PC3 cells assessed as cell survival at 250 uM after 48 hrs by MTT assay; format: functional; settings: PC-3, 48 h, read-out: Survival
SK-MEL-5 [8] = experiment: Cytotoxicity against human SK-MEL-5 cells assessed as cell survival at 250 uM after 48 hrs by MTT assay; format: functional; settings: SK-MEL-5, 48 h, read-out: Survival
MCF7 [9] = experiment: Cytotoxicity against human MCF7 cells assessed as cell survival at 250 uM after 48 hrs by MTT assay; format: functional; settings: MCF7, 48 h, read-out: Survival
A549 [10] = experiment: Cytotoxicity against human A549 cells assessed as cell survival at 250 uM after 48 hrs by MTT assay; format: functional; settings: A549, 48 h, read-out: Survival

SMILES | IC50 (HCT-116 [1]) [µM] | IC50 (MCF7 [2]) [µM] | IC50 (SK-MEL-5 [3]) [µM] | IC50 (PC-3 [4]) [µM] | Activity (Pseudomonas aeruginosa) | IC50 (A549 [5]) [µM] | Activity (Escherichia coli) | Activity (Candida albicans) | Activity (Staphylococcus aureus) | Activity (Enterococcus faecium) | Activity (Bacillus subtilis) | viability at 250 µM (HCT-116 [6]) [%] | viability at 250 µM (PC-3 [7]) [%] | viability at 250 µM (SK-MEL-5 [8]) [%] | viability at 250 µM (MCF7 [9]) [%] | viability at 250 µM (A549 [10]) [%]
COc1cc2c(c(O)c1Cl)C(=O)c1c(O)cc(C[C@H](C)O)cc1[C@H]2[C@@H]1c2cc(C[C@H](C)O)cc(O)c2C(=O)c2c1cc(OC)c(Cl)c2O | 10.5 | > 20 | 12.2 | > 20 | inactive | > 20 | inactive | inactive | inactive | inactive | inactive | – | – | – | – | –
COc1cc2c(c(O)c1Cl)C(=O)c1c(O)cc(C[C@H](C)O)cc1[C@H]2[C@H]1c2cc(C[C@H](C)O)cc(O)c2C(=O)c2c1cc(OC)c(Cl)c2O | 9 | > 20 | 11 | > 20 | inactive | > 20 | inactive | inactive | inactive | inactive | inactive | – | – | – | – | –
COc1cc2c(c(O)c1Cl)C(=O)c1c(O)cc(C[C@H](C)O)cc1[C@@H]2[C@H]1c2cc(C[C@H](C)O)cc(O)c2C(=O)c2c1cc(OC)c(Cl)c2O | 13.7 | > 20 | 19.7 | > 20 | inactive | > 20 | inactive | inactive | inactive | inactive | inactive | – | – | – | – | –
COc1cc([C@@H]2c3cc4c(cc3[C@@H](O[C@@H]3O[C@@H]5CO[C@@H](C)O[C@H]5[C@H](O)[C@H]3O)[C@H]3COC(=O)[C@H]23)OCO4)cc(OC)c1O [ETOPOSIDE] | – | – | – | – | – | – | – | – | – | – | – | 11.6 | 45.5 | 26.4 | 43.8 | 19.7
